The record followed here is US20240270701A1, “BETA ADRENERGIC AGONIST AND METHODS OF USING THE SAME” (Curasen Therapeutics, Inc., priority 2021, published 2024).

Assay [1] concerns the target T1, B1-AR (Homo sapiens, UniProt P08588).
T1 construct: expressed in transfected cells; host or cells: CHO-K1
Briefly: cAMP Gs dynamic HTRF assay, cells expressing beta-adrenergic receptor (CHO-K1), B1-AR. It is filed as cell-based. The note with it: for EC50: cAMP HTRF, read-out: pEC50 [B1-AR] (converted); for Emax: relative to full agonist isoproterenol, read-out: Emax (% iso) (%) [B1-AR]. For orientation: TR-FRET usually uses a lanthanide donor and a delayed reading to cut background.

The target in assay [2] is T2, B2-AR (Homo sapiens, UniProt P07550).
T2 construct: expressed in transfected cells; host or cells: CHO-K1
Briefly: cAMP Gs dynamic HTRF assay, cells expressing beta-adrenergic receptor (CHO-K1), B2-AR. It is filed as cell-based. The note with it: for Emax: CHO-K1, CHO-K1 cells, relative to full agonist isoproterenol, read-out: Emax (% iso) (%) [B2-AR]; for EC50: CHO-K1 cells, cAMP HTRF, read-out: pEC50 [B2-AR] (converted).

Molecules are shown by their SMILES.

T2 sequence (P07550 whole entry, species assumed): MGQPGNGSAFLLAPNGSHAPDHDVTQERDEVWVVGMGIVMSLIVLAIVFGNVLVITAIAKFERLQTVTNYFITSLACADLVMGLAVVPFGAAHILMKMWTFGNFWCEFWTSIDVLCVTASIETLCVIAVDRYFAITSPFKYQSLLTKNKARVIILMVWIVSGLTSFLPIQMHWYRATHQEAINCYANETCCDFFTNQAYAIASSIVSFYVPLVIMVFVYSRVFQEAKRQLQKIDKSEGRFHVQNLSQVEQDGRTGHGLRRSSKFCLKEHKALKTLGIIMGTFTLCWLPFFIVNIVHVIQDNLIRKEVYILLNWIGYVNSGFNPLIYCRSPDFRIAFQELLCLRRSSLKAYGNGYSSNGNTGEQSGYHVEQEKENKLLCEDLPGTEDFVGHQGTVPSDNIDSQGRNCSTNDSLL
T1 sequence (P08588 whole entry, species assumed): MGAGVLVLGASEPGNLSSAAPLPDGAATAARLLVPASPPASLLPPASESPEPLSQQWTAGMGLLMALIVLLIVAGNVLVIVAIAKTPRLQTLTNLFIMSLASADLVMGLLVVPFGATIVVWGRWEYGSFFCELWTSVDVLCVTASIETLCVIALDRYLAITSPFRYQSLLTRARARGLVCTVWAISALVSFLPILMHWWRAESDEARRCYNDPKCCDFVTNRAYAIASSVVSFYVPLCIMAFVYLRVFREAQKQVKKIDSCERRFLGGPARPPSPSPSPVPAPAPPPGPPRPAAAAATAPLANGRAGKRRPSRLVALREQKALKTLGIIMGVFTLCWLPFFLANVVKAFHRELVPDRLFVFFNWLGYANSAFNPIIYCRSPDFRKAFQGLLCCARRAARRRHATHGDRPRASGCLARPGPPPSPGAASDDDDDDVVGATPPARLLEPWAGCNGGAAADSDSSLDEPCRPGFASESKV

As usually defined, the Emax is the maximal effect, on the per cent scale that the assay sets. For `CC(C)[C@@H](C)NC[C@H](O)c1ccc(F)c2[nH]ncc12` [I-31], the EC50 is 10 to 100 nM in assay [1] and < 10 nM in assay [2]. In addition, the Emax in assay [1] was 70 to 90%; in assay [2], > 90%.
On the same counts, the results for `CC(C)(C)NC[C@H](O)c1ccc(N)nn1` [I-142] are 10 to 100 nM, 10 to 100 nM, > 90% and > 90%.
